These results are taken from US20130231377A1, “PACTAMYCIN ANALOGS AND METHODS OF USE” (State of Oregon acting by and through the state Board of …, priority 2010, published 2013).

In data set [1] the test system is human colon cancer HT-29 cells. Kind of data set: MTT cell viability assay in HT-29 cells. The class given is cell-based. As for the experimental part:
The MTT assay was carried out as described by Mosmann (J. Immunol. Methods, 1983, 65:55). Briefly, human colon cancer HT-29 cells (ATCC) were seeded in 96-well plates at a density of 1.0×10^4 cells per well. The growth medium consisted of phenol red-free RPMI 1640 (Invitrogen, Carlsbad, Calif.) containing 10% fetal bovine serum (Invitrogen, Carlsbad, Calif.), glutamine (2 mM), penicillin (100 units/mL) and streptomycin (100 μg/mL). After a 24-hour incubation at 37° C. in a humidified atmosphere of 5% CO2, the medium was removed and replaced with fresh RPMI 1640 medium (with or without 10% FBS and no penicillin or streptomycin). Increasing concentrations of pactamycin, pactamycate, de-6MSA pactamycin, or de-6MSA-pactamycate dissolved in DMSO were added to cells at a volume of 0.2 mL/well. DMSO was added to control media not to exceed a final concentration of 1%. Following a 24-hour incubation, the medium was aspirated from each well and replaced with fresh RPMI medium with 10% FBS and MTT (0.5 mg/mL). […] The plate was shaken for 10 minutes before reading the absorbance at 570 nm using a microplate reader (SpectraMax 250, Molecular Devices, Sunnyvale, Calif., USA). The viability of treated cells was expressed as the percentage of control cells. […]
A general note: Tetrazolium assays rely on reduction of a dye to a coloured formazan, in cell work by metabolically active cells.

Data set [2] concerns HT-29 human colon carcinoma cells. The experiment in a line: SRB growth inhibition assay in HT-29 cells. The class given is cell-based. The settings on record: HT-29 cells, 24 hours. The protocol:
Growth inhibition of HT-29 cells induced by the test compounds was also evaluated by the SRB assay, which is based on measuring total biomass by staining the cellular proteins with sulforhodamine B (Skehan et al., J. Natl. Cancer Inst., 1990, 82:1107). After treating the HT-29 cells with the compounds for 24 hours, the adherent cells grown in 96-well plates were fixed with 10% trichloroacetic acid and incubated for 1 hour at 4° C. The plates were washed five times with tap water, dried, and stained with SRB solution (0.4% wt/vol in 1% acetic acid) for 30 minutes at room temperature. The plates were again washed and dried before adding 10 mM Tris base to solubilize the bound stain. Optical densities (OD) were read at 564 nm in SpectraMax 250 and cell growth of treated cells was expressed as the percentage of control cells, ODtest/ODcontrol×100%.

Data set [3] concerns E. coli. Kind of data set: Antibacterial agar diffusion assay (Example 2). Format: cell-based, Escherichia coli. As for the experimental part: (§1) Antibacterial activity of pactamycin and its analogues was determined by an agar diffusion assay. E. coli, Pseudomonas aeruginosa, Mycobacterium smegmatis, and Staphylococcus aureus were streaked on nutrient agar (Difco) and grown overnight at 37° C. Colonies were transferred to nutrient broth and incubated at 37° C. for 24 hours. Turbidity of the inoculum was measured to a proper density at 600 nm (BioRad, SmartSpec 3000). For plate preparation, inoculum (500 μL) was mixed thoroughly with warm nutrient agar (50 mL) and poured to 25 mL square plates. The agar plates were allowed to solidify and dry for 30 minutes before assay. Sterile blank paper disks (Becton-Dickinson) were impregnated with pactamycin and its analogues (20 μL) at various concentrations and dried at room temperature. The disks were placed onto inoculated agar plates and incubated at 37° C. for 24 hours. In order to produce a contrast background of the inhibition zone, 0.25% MTT developing dye (1 mL) was added over the plates.
Background: A growth-free zone around the sample is the usual read-out of agar diffusion tests.

The subject of data set [4] is chloroquine-resistant and MDR clone Dd2 of P. falciparum. Kind of data set: Antimalarial activity assay, SYBR Green I fluorescence-based method. Format: cell-based, Plasmodium falciparum. As for the experimental part:
(§2) An antimalarial activity assay was carried out at the Oregon Translational Research and Drug Development Institute (OTRADI). Two strains of P. falciparum were used. The chloroquine-sensitive clone D6, and chloroquine-resistant and MDR clone Dd2 was obtained from the Malaria Research and Reference Reagent Resource Center (MR4) (Manassas, Va.). The parasites were cultured according to the method of Trager and Jensen (Trager and Jensen, Science, 1976, 193:673-675), with minor modifications. The cultures were maintained in human erythrocytes (Lampire Biological Laboratories, Pipersville, Pa.), suspended at 2% hematocrit in RPMI 1640 (Sigma) containing 0.5% Albumax (Invitrogen), […] hypoxanthine (Lancaster), and 50 μg/L gentamicin (Invitrogen), and incubated at 37° C. under a gas mixture of 5% O2, 5% CO2, and 90% N2. In vitro antimalarial activity was determined by a SYBR Green I fluorescence-based method described previously by Smilkstein et al. (Smilkstein et al., Antimicrob. Agents Chemother., 2004, 48:1803-1806). Frozen stock solutions of each test drug (1 mM in DMSO) were thawed, warmed to 37° C., and mixed thoroughly prior to use. Drug solutions were serially diluted with culture medium, and distributed to asynchronous parasite cultures on 96-well plates in quadruplicate in a total volume of 100 μL to achieve 0.2% parasitemia with a 2% hematocrit in a total volume of 100 μL. Automated pipeting and dilution was carried using programmable Precision XS (Bio-Tek, Winooski, Vt.) and Sciclone ALH3000 (Caliper, Hopkinton, Mass.) robotic stations. The plates then were incubated for 72 hours at temperature and gas conditions described above. After incubation, 100 μL of lysis buffer with SYBR Green I was added to each well. The plates were incubated at room temperature for 1 h and then placed in a 96-well fluorescence plate reader (Synergy4, BioTek, Winooski, Vt.) with excitation and emission wavelength at 485 nm and 528 nm, respectively, for measurement of fluorescence. The 50% inhibitory concentration (IC50) was determined by non-linear regression analysis of logistic dose-response curves (GraphPad Prism software).

Data set [5] concerns chloroquine-sensitive clone D6 of P. falciparum. The data set is described as above. Format: cell-based, Plasmodium falciparum. The following applies: Plasmodium falciparum, D6; Example 2, FIG. 14; read-out: EC50 against the D6 strain. The protocol:
as §2

Data set [6] deals with Mycobacterium smegmatis. Kind of data set: Antibacterial agar diffusion assay (Example 2). Format: cell-based. The protocol: as §1
The test system of data set [7] is Staphylococcus aureus. Kind of data set: Antibacterial agar diffusion assay (Example 2). Format: cell-based. As for the experimental part:
as §1

Data set [8] concerns Pseudomonas aeruginosa. Kind of data set: Antibacterial agar diffusion assay (Example 2). The class given is cell-based. The protocol:
as §1

Data set [9] concerns Gram-positive and Gram-negative bacteria (S. aureus, M. smegmatis, P. aeruginosa, E. coli). Kind of data set: Antibacterial dose-response studies, broth microdilution (Example 2). Format: cell-based. The following applies: 0.01 (or 0.1)-100 μM. As for the experimental part:
Dose response assays were performed at a 100-μL volume in 200 μL Eppendorf tubes. The compounds were diluted and added to the bacterial suspension at final concentrations of 0.01 (or 0.1)-100 μM. After incubation at 37° C. for 24 hours, turbidity of cultures was measured at 600 nm (Biorad, SmartSpec 3000). Each assay was done in triplicate.
To further evaluate and compare the in vitro efficacy of de-6MSA-pactamycin with that of pactamycin, dose-response studies were done using a broth microdilution method with 0.01 (or 0.1)-100 μM concentrations of pactamycin and de-6MSA-pactamycin (FIGS. 16A-16D). […] Both pactamycin and de-6MSA-pactamycin were maximally active between 1 and 10 μM and effective against both Gram-positive and Gram-negative bacteria.

By EC50 is commonly meant the midpoint of the concentration-response curve. As for `CC(=O)c1cccc(N[C@H]2[C@H](N)[C@@](NC(=O)N(C)C)([C@H](C)O)[C@@](C)(O)[C@@]2(O)CO)c1` [de-6MSA-pactamycin], the “cytotoxicity profile (MTT-based assay)” value in data set [1] is on record as “equivalent cytotoxicity profiles with the respective parent compounds”. For the same compound, the “cytotoxicity profile (SRB-based assay)” value in data set [2] was “equivalent cytotoxicity profiles with the respective parent compounds”. Also, the “antibacterial activity, growth of E. coli” value in [3] is recorded as “inhibited the growth”. For the same compound, the EC50 in data set [4] (Plasmodium falciparum, Example 2, FIG. 14, multi-drug resistant Dd2, read-out: EC50 against the Dd2 strain) stood at 9 nM; in [5], 7 nM. In [4] (relative to chloroquine), the “times more effective than chloroquine against Dd2” value came to 10 times. Also, the “antibacterial activity, growth of Mycobacterium smegmatis” value in [6] is “inhibited the growth”. The “antibacterial activity, growth of Staphylococcus aureus” value in [7] was “inhibited the growth”. For the same compound, the “antibacterial activity, growth of Pseudomonas aeruginosa” value in data set [8] is on record as “inhibited the growth”. Further, in data set [9], the “biological activity compared with pactamycin in dose-response studies” value was “equivalent biological activity with the parent molecule”.
